Assay results from the supplement of paper PMC10307832.

What was measured:
Test in all cases: relative viability (nuclei count vs DMSO), 5 days (fraction); higher = more cells survive
Tipifarnib + Trametinib = compound: Cn1cncc1[C@@](N)(c1ccc(Cl)cc1)c1ccc2c(c1)c(-c1cccc(Cl)c1)cc(=O)n2C [Tipifarnib] + CC(=O)Nc1cccc(-n2c(=O)n(C3CC3)c(=O)c3c(Nc4ccc(I)cc4F)n(C)c(=O)c(C)c32)c1 [Trametinib] (partner 0.02 µM)
Outline: (§1)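 Lung cancer cell lines were pin-tool dosed in 1536-well plates on the day after seeding, with either a lone drug or a fixed anchor-drug dose plus five library-drug doses (not always all listed) in √10 steps. Nuclei were counted on 4× images after 5 days. Relative viability is the ratio of treated-well to vehicle-well nuclei counts, with each value a median of duplicate plates.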

Tipifarnib + OSI-027 = compound: Cn1cncc1[C@@](N)(c1ccc(Cl)cc1)c1ccc2c(c1)c(-c1cccc(Cl)c1)cc(=O)n2C [Tipifarnib] + COc1cccc2cc(-c3nc([C@H]4CC[C@H](C(=O)O)CC4)n4ncnc(N)c34)[nH]c12 [OSI-027] (partner 0.5 µM)
Outline: as §1

Tipifarnib + Lapatinib = compound: Cn1cncc1[C@@](N)(c1ccc(Cl)cc1)c1ccc2c(c1)c(-c1cccc(Cl)c1)cc(=O)n2C [Tipifarnib] + CS(=O)(=O)CCNCc1ccc(-c2ccc3ncnc(Nc4ccc(OCc5cccc(F)c5)c(Cl)c4)c3c2)o1 [Lapatinib] (partner 2 µM)
Outline: as §1

Tipifarnib + Linsitinib = compound: Cn1cncc1[C@@](N)(c1ccc(Cl)cc1)c1ccc2c(c1)c(-c1cccc(Cl)c1)cc(=O)n2C [Tipifarnib] + C[C@]1(O)C[C@@H](c2nc(-c3ccc4ccc(-c5ccccc5)nc4c3)c3c(N)nccn32)C1 [Linsitinib] (partner 1 µM)
Outline: as §1

Cell Line	relative viability (Tipifarnib + Trametinib; first compound 0.01 µM)	relative viability (Tipifarnib + Trametinib; first compound 0.03162 µM)	relative viability (Tipifarnib + Trametinib; first compound 0.1 µM)	relative viability (Tipifarnib + Trametinib; first compound 0.3162 µM)	relative viability (Tipifarnib + Trametinib; first compound 1 µM)	relative viability (Tipifarnib + OSI-027; first compound 0.01 µM)	relative viability (Tipifarnib + OSI-027; first compound 0.03162 µM)	relative viability (Tipifarnib + OSI-027; first compound 0.1 µM)	relative viability (Tipifarnib + OSI-027; first compound 0.3162 µM)	relative viability (Tipifarnib + OSI-027; first compound 1 µM)	relative viability (Tipifarnib + Lapatinib; first compound 0.01 µM)	relative viability (Tipifarnib + Lapatinib; first compound 0.03162 µM)	relative viability (Tipifarnib + Lapatinib; first compound 0.1 µM)	relative viability (Tipifarnib + Lapatinib; first compound 0.3162 µM)	relative viability (Tipifarnib + Lapatinib; first compound 1 µM)	relative viability (Tipifarnib + Linsitinib; first compound 0.01 µM)	relative viability (Tipifarnib + Linsitinib; first compound 0.03162 µM)	relative viability (Tipifarnib + Linsitinib; first compound 0.1 µM)	relative viability (Tipifarnib + Linsitinib; first compound 0.3162 µM)	relative viability (Tipifarnib + Linsitinib; first compound 1 µM)
HCC-78	0.966	0.766	0.647	0.623	0.664	0.325	0.376	0.354	0.373	0.308	0.661	0.633	0.514	0.54	0.37	0.607	0.565	0.562	0.354	0.361
HCC-366	0.415	0.371	0.197	0.147	0.102	1.01	0.778	0.265	0.18	0.0734	0.981	0.822	0.345	0.235	0.039	0.619	0.487	0.343	0.206	0.0767
HCC-827	0.529	0.598	0.481	0.479	0.504	0.901	0.809	0.687	0.435	0.388	0.184	0.208	0.152	0.186	0.172	0.828	0.918	0.805	0.639	0.6
HOP-62	0.375	0.297	0.258	0.261	0.282	0.639	0.382	0.33	0.263	0.317	0.841	0.301	0.454	0.244	0.265	0.916	0.64	0.38	0.304	0.301
IA-LM											0.295	0.192	0.215	0.144	0.156	0.329	0.285	0.332	0.288	0.189
LC-2-ad	0.938	0.661	0.669	0.561	0.532	0.765	0.755	0.522	0.499	0.438	0.843	0.592	0.367	0.436	0.178	0.756	0.705	0.487	0.448	0.369
LCLC-97TM1	0.202	0.209	0.171	0.17	0.157	0.402	0.409	0.358	0.286	0.22	0.998	1.02	0.554	0.504	0.237	0.204	0.169	0.174	0.192	0.169
LCLC-103H	0.649	0.674	0.646	0.642	0.667	0.383	0.445	0.372	0.363	0.31						1.04	1.02	1.02	0.802	0.913
LK-2	0.613	0.971	0.766	0.559	0.597	0.183	0.193	0.195	0.165	0.164	0.824	0.801	0.8	0.678	0.629	0.499	0.506	0.399	0.379	0.487
LOU-NH91	0.825	0.747	0.73	0.69	0.723	0.698	0.589	0.5	0.485	0.467	0.794	0.658	0.675	0.669	0.499	0.937	0.819	0.838	0.736	0.691
LU99A	0.394	0.431	0.312	0.25	0.209	0.242	0.229	0.224	0.238	0.236	0.663	0.583	0.461	0.448	0.275	0.563	0.477	0.299	0.257	0.272
NCI-H441	0.429	0.319	0.372	0.228	0.225	0.791	0.255	0.393	0.326	0.272						0.67	0.455	0.413	0.402	0.33
NCI-H522	0.802	0.834	0.739	0.68	0.696	0.66	0.709	0.725	0.584	0.615										
NCI-H1299											0.998	0.9	0.915	0.845	0.836	1.06	0.886	0.906	0.803	0.635
NCI-H1563						0.725	0.777	0.721	0.641	0.62	1	0.956	1.02	0.891	0.879	1.13	1.13	1.13	1.03	1.14
NCI-H1648	0.481	0.414	0.523	0.466	0.481	0.268	0.258	0.271	0.307	0.259										
NCI-H1650	0.442	0.285	0.474	0.294	0.236	0.407	0.17	0.305	0.26	0.196	0.687	0.643	0.486	0.376	0.211					
NCI-H1703											0.78	0.706	0.253	0.319	0.417	0.84	0.323	0.145	0.274	0.373
NCI-H2170	1.04	0.876	0.793	0.716	0.655	0.668	0.678	0.583	0.55	0.353	0.245	0.271	0.272	0.265	0.248					
NCI-H2342	0.778	0.968	0.803	0.547	0.65	0.634	0.542	0.631	0.564	0.448										
